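Tested at 5 concentrations; 48 h exposure; 96-well plates; endpoints linearly interpolated, else capped at highest concentration. Here, GI50 denotes the concentration required for 50% inhibition of growth.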 Active and inactive are the calls of the source. No stated cut-off is given here; in the data, active = GI50 up to about 1.1 µM and inactive = higher.
What was measured:
Assay in all cases: growth of human tumour cells (NCI), 48 h
DMS-114 = test system: DMS-114
RXF 631 = test system: RXF 631
SNB-78 = test system: SNB-78
M19-MEL = test system: M19-MEL
KM-20L2 = test system: KM-20L2
HOP-18 = test system: HOP-18
DLD-1 = test system: DLD-1
DMS-273 = test system: DMS-273
LXFL 529 = test system: LXFL 529

Structure (SMILES) | GI50 (DMS-114) | GI50 (RXF 631) | GI50 (SNB-78) | GI50 (M19-MEL) | GI50 (KM-20L2) | GI50 (HOP-18) | GI50 (DLD-1) | GI50 (DMS-273) | GI50 (LXFL 529)
Cc1c[nH]c2c1C13CC1CN(C(=O)c1cc4cc(NC(=O)c5cc6ccccc6o5)ccc4[nH]1)C3=CC2=O (centres undefined) | < 0.001 µM (active) | < 0.001 µM (active) | < 0.001 µM (active) | < 0.001 µM (active) | < 0.001 µM (active) | < 0.001 µM (active) | < 0.001 µM (active) |  | 
Oc1ccc2occ3c2c1CCC3 | 81.8 µM (inactive) | > 100 µM (inactive) | > 100 µM (inactive) | > 100 µM (inactive) | > 100 µM (inactive) | > 100 µM (inactive) | > 100 µM (inactive) | > 100 µM (inactive) | > 100 µM (inactive)
NC(=O)c1c([N+](=O)[O-])cc(C(F)(F)F)cc1[N+](=O)[O-] | 26.9 µM (inactive) |  | > 100 µM (inactive) |  | 33.3 µM (inactive) | > 100 µM (inactive) | > 100 µM (inactive) | 35.1 µM (inactive) | > 100 µM (inactive)
COc1ccc(/C(=C/n2ccnc2)C(=O)c2ccc(OC)c(OC)c2)cc1 | > 100 µM (inactive) |  |  | > 100 µM (inactive) | > 100 µM (inactive) |  | > 100 µM (inactive) | > 100 µM (inactive) | > 100 µM (inactive)
Cc1ccc(N2C(=O)C3C=CC(n4[nH]c(=O)n(Cc5ccccc5)c4=O)CC3C2=O)cc1 (centres undefined) | > 100 µM (inactive) |  | > 100 µM (inactive) | > 100 µM (inactive) | > 100 µM (inactive) | > 100 µM (inactive) | > 100 µM (inactive) | > 100 µM (inactive) | > 100 µM (inactive)
C=CCN1/C(=C2\SC(=S)N(c3ccc(C)cc3)C2=O)Sc2c1ncn(C)c2=O | > 100 µM (inactive) |  | 90.6 µM (inactive) | > 100 µM (inactive) | > 100 µM (inactive) |  | > 100 µM (inactive) | > 100 µM (inactive) | 59.7 µM (inactive)
COC(=O)C(C(=O)C(=O)Nc1ccccc1C(C)=O)c1nc2ccc(Cl)cc2nc1O (centres undefined) | > 100 µM (inactive) | > 100 µM (inactive) | > 100 µM (inactive) | > 100 µM (inactive) | > 100 µM (inactive) | 53.5 µM (inactive) | > 100 µM (inactive) |  | > 100 µM (inactive)
C/C(=N/N(C=O)C[n+]1ccccc1)C(CN(CC(C)C)CC(C)C)C(=O)Nc1ccc(C)cc1C (centres undefined) | 70.8 µM (inactive) | > 100 µM (inactive) |  |  | > 100 µM (inactive) |  | > 100 µM (inactive) |  | 
O=C1C(c2ccccc2)=C(c2ccccc2)C(c2ccc(Sc3ccc(C4=C(c5ccccc5)C(=O)C(c5ccccc5)=C4c4ccccc4)cc3)cc2)=C1c1ccccc1 | > 100 µM (inactive) | > 100 µM (inactive) | 87.5 µM (inactive) | > 100 µM (inactive) | > 100 µM (inactive) |  | > 100 µM (inactive) | > 100 µM (inactive) | 
Oc1nc(-c2ccccc2)cc(-c2ccccc2O)n1 | 58.5 µM (inactive) |  | > 100 µM (inactive) | > 100 µM (inactive) | 67.5 µM (inactive) | > 100 µM (inactive) | > 100 µM (inactive) | > 100 µM (inactive) | 50.4 µM (inactive)
O=c1[nH]c2ccccc2cc1C(Cl)=C(Cl)Cl | > 100 µM (inactive) |  | > 100 µM (inactive) | > 100 µM (inactive) | > 100 µM (inactive) | > 100 µM (inactive) | > 100 µM (inactive) | > 100 µM (inactive) | > 100 µM (inactive)

From ChEMBL document CHEMBL1201862, “PubChem BioAssay data set” (2004)
